Common to all, as to type: cell-based
One test concerns COR-L105. In words: CellTiter-Glo proliferation assay, COR-L105. The conditions noted are these: Homo sapiens, COR-L105, 120 h, COR-L105, 5 days; for Emax: read-out: COR-L105 Span (max). The protocol:
(§1) The BCL-xL degrader compounds were tested against two endogenous cancer cell lines: • COR-L105: ECACC No. 92031918 cultured in RPMI-1640+10% FBS • NCI-H1650: (ATCC No. CRL-5883 cultured in RPMI-1640+10% FBS
(§2) The ability of the BCL-xL degrader low molecular weight compounds to inhibit cell proliferation and survival was assessed using the Promega CellTiter-Glo® proliferation assay.
(§3) Cell lines were cultured in media that is optimal for their growth at 5% CO2, 37° C. in a tissue culture incubator. Prior to seeding for the proliferation assay, the cells were split at least 2 days before the assay to ensure optimal growth density. On the day of seeding, adherent cells were lifted off tissue culture flasks using 0.25% trypsin. Cell viability and cell density were determined using a cell counter (Vi-Cell XR Cell Viability Analyzer, Beckman Coulter). Cells with higher than 85% viability were seeded for the assay.
(§4) The COR-105 cell line was seeded in white, clear bottom 384-well TC treated plates (Corning cat. #3765). Cells were seeded at a density of 1,000 cells per well in 45 μL of standard growth media. Plates were incubated at 5% CO2, 37° C. overnight in a tissue culture incubator. The NCI-H1650 cell line was seeded in black, clear round bottom 384-well ultra-low attachment spheroid microplates (Corning cat. #3830). Cells were seeded at a density of 3,000 cells per well in 45 uL of standard growth media. Plates were spun in a centrifuge for 5 minutes and 1,000 RPM. Plates were incubated at 5% CO2, 37° C. for 72 hours in a tissue culture incubator.
(§5) On the day of dosing, BCL-xL degrader low molecular weight compounds were prepared at 1 OX in standard growth media. The prepared drug treatments were then added to the cells resulting in final concentrations of 0.508 nM-10 μM and a final volume of 50 μL per well. Each drug concentration was tested in quadruplets. Plates were incubated at 5% CO2, 37° C. for 5 days in a tissue culture incubator.
(§6) For COR-L105 plates, cell viability was assessed through the addition of 25 μL of CellTiter Glo® (Promega, cat #G7573), a reagent which lyses cells and measures total adenosine triphosphate (ATP) content. Plates were incubated at room temperature for 10 minutes to stabilize luminescent signals prior to reading with a luminescence reader (EnVision Multilabel Plate Reader, PerkinElmer). For NCI-H1650 plates, cell viability was assessed through the addition of 40 μL of CellTiter Glo® 3D Cell Viability Assay substrate (Promega, cat #G9681), a reagent which lyses cells and measures total adenosine triphosphate (ATP) content. Wells were mixed thoroughly and plates were incubated at room temperature for 30 minutes to stabilize luminescent signals prior to reading using a luminescence reader (EnVision Multilabel Plate Reader, PerkinElmer).
(§7) To evaluate the effect of the drug treatments, luminescent counts from wells containing untreated cells (100% viability) were used to normalize treated samples. A variable slope model was applied to fit a nonlinear regression curve to the data in GraphPad PRISM version 7.02 software. IC50 and Amax values were extrapolated from the resultant curves. The concentrations of treatment required to inhibit 50% of cell growth or survival (IC50) were calculated with representative IC50 values of the cell lines tested summarized in Table 11.

The next test concerns NCI-H1650. Briefly: CellTiter-Glo 3D proliferation assay, NCI-H1650 spheroids. The conditions noted are these: Homo sapiens, NCI-H1650, 120 h, 5 days; for Emax: read-out: NCI-H1650 Span (Amax). As to the method:
as §1, §2, §3, §4, §5, §6, §7
Background: ATP-based viability assays read luminescence as a measure of living cells.

In test [1] the test system is EBC-1 lung cancer cell line. Briefly: EBC-1 cell proliferation, CellTiter-Glo assay. To be noted: Homo sapiens, 120 h; Ebc-1 cell viability, CTG assay, 5 days of treatment; read-out: CTG 5 day Ebc1 GI50. The method in brief:
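EBC-1 cells seeded at 1000 per well overnight, then exposed to 10-point dilutions (0.508 nM–10 μM final) for 5 days at 37 °C, in triplicate. ATP luminescence by CellTiter-Glo, normalised to untreated wells; GI50 from four-parameter logistic fit, runs valid only with at least one doubling.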

In the next test the target is T1, HiBiT-tagged BCL-xL (Homo sapiens, UniProt Q07817).
T1 construct: expressed in transfected cells; host or cells: NCI-H1650 (ATCC No. CRL-5883), engineered HiBiT cell line
In words: NCI-H1650 BCL-xL protein levels, Nano-Glo HiBiT Lytic Detection. To be noted: NCI-H1650 expressing HiBiT-tagged BCL-xL, overnight incubation, read-out: Bcl-xl HIBIT NCIH1650 DC50. The method in brief: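 NCI-H1650 cells expressing HiBiT-tagged BCL-xL (5000/well) were treated overnight at 37° C with 10 concentrations, final 0.508 nM-10 μM, in triplicate. Remaining BCL-xL measured by Nano-Glo HiBiT lytic luminescence, normalized to untreated cells; 50% values by four-parameter logistic fit.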
In general terms: The HiBiT peptide binds its large partner to form an active luciferase.

For a further test, the system named is MOLT-4 cells. In words: MOLT-4 cell viability, MTT assay. The conditions noted are these: Homo sapiens, MOLT-4, 48 h. The text has this:
The MTT colorimetric assay is based on the mitochondrial reduction of tetrazolium salt by living cells. The viable cell number is proportional to the production of formazan salts, which can be read spectrophotometrically at 540 nm. The CTG luminescent assay (CellTiter GLO, Promega) is based on a reagent which lyses cells and measures total adenosine triphosphate (ATP) content. The viable cell number is proportional to the production of ATP.
MOLT-4 cells were purchased from ATCC and cultivated in RPMI 1640 supplemented with 10% heat inactivated fetal bovine serum, penicillin (100 IU/mi), streptomycin (100 μg/ml) and L-glutamine (2 mM). Cells were cultured at 37° C. in a humidified atmosphere containing 5% […].
For MTT assay, cells were seeded in 96 microwell plates (150 μL per well) and exposed to the compounds for 48 h (3.16 fold serially diluted; 9 concentrations each, triplicates). At the end of incubation time, 15 μL of MTT solution (5 mg/ml) were added per well and the cells were incubated for another 4 h. Then, 100 μL of 10% Sodium Dodecyl Sulfate (SDS)/HCl 10 mM were added per well and the plate was incubated overnight, before measurement of optical density at 540 nm.
IC50, were calculated using standard four-parametric curve fitting. IC50 is defined as the compound concentration at which the MTT or CTG signal is reduced to 50% of that measured for the control. Results shown in Table 14 represent the mean of at least 2 independent experiments.

T1 sequence (Q07817 whole entry): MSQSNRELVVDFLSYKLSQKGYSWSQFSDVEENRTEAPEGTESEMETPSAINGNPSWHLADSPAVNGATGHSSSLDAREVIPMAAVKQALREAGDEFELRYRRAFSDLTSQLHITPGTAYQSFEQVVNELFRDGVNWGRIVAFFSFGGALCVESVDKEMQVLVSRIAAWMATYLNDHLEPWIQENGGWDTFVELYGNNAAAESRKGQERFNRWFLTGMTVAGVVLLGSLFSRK

Regarding `Cc1ncsc1-c1ccc(CNC(=O)[C@@H]2C[C@@H](O)CN2C(=O)[C@@H](NC(=O)C2(F)CC2)C(C)(C)C)c(OCc2ccc(CN3CCN(CC#Cc4ccc(OCCCc5sc(N6CCCc7c6nnc(Nc6nc8ccccc8s6)c7C)nc5C(=O)O)c(F)c4)CC3)cc2)c1` [Example 58, 2-(3-(benzo[d]thiazol-2-ylamino)-4-methyl-6,7-dihydropyrido [2,3-c]pyridazin-8(5H)-yl)-5-(3-(2-fluoro-4-(3-(4-(4-((2-(((2S,4R)-1-((S)-2-(1-fluorocyclopropane-1-carboxamido)-3,3-dimethylbutanoyl)-4-hydroxypyrrolidine-2-carboxamido)methyl)-5-(4-methylthiazol-5-yl)phenoxy)methyl)benzyl)piperazin-1-yl)prop-1-yn-1-yl)phenoxy)propyl)thiazole-4-carboxylic acid], in the test with COR-L105, the IC50 amounted to 481 nM and the Emax is 85.5%. Further, in the test on NCI-H1650, the IC50 was 188 nM and the Emax is 98.2%.

Consider `Cc1ncsc1-c1ccc(CNC(=O)[C@@H]2C[C@@H](O)CN2C(=O)[C@@H](NC(=O)C2(F)CC2)C(C)(C)C)c(OCCCCCCCCCN2CCN(CC#Cc3ccc(OCCCc4sc(N5CCCc6c5nnc(Nc5nc7ccccc7s5)c6C)nc4C(=O)O)c(F)c3)CC2)c1` [Example 57, 2-(3-(benzo[d]thiazol-2-ylamino)-4-methyl-6,7-dihydropyrido [2,3-c]pyridazin-8(5H)-yl)-5-(3-(2-fluoro-4-(3-(4-(9-(2-(((2S,4R)-1-((S)-2-(1-fluorocyclopropane-1-carboxamido)-3,3-dimethylbutanoyl)-4-hydroxypyrrolidine-2-carboxamido)methyl)-5-(4-methylthiazol-5-yl)phenoxy)nonyl)piperazin-1-yl)prop-1-yn-1-yl)phenoxy)propyl)thiazole-4-carboxylic acid], for which, in the test with COR-L105, the half-inhibitory concentration (IC50) amounted to 3630 nM and the Emax came out at 72.5%. In the test on NCI-H1650, the IC50 worked out at 258 nM and the Emax turned out to be 126%. The GI50 in test [1] was determined as 5 nM. Also, on HiBiT-tagged BCL-xL, the DC50 stood at 18 nM.

Consider `Cc1cc(N(CCCCNC(=O)CCOCCOCCOCCOCCNc2cccc3c2C(=O)N(C2CCC(=O)NC2=O)C3=O)c2nc(C(=O)O)c(CCCOc3ccc(C#CCN(C)C)cc3F)s2)nnc1Nc1nc2ccccc2s1` (centres unmarked) [Example 149, 2-[[6-(1,3-benzothiazol-2-ylamino)-5-methyl-pyridazin-3-yl]-[4-[3-[2-[2-[2-[2-[[2-(2,6-dioxo-3-piperidyl)-1,3-dioxo-isoindolin-4-yl]amino]ethoxy]ethoxy]ethoxy]ethoxy]propanoylamino]butyl]amino]-5-[3-[4-[3-(dimethylamino)prop-1-ynyl]-2-fluoro-phenoxy]propyl]thiazole-4-carboxylic acid], for which the IC50 with MOLT-4 cells was determined as 358 nM.

As for `Cc1ncsc1-c1ccc(CNC(=O)[C@@H]2C[C@@H](O)CN2C(=O)[C@@H](NC(=O)C2(F)CC2)C(C)(C)C)c(OCCN(C)CC(=O)N2CCN(CC#Cc3ccc(OCCCc4sc(N5CCCc6c5nnc(Nc5nc7ccccc7s5)c6C)nc4C(=O)O)c(F)c3)CC2)c1` [Example 59, 2-(3-(benzo[d]thiazol-2-ylamino)-4-methyl-6,7-dihydropyrido [2,3-c]pyridazin-8(5H)-yl)-5-(3-(2-fluoro-4-(3-(4-(N-(2-(2-(((2S,4R)-1-((S)-2-(1-fluorocyclopropane-1-carboxamido)-3,3-dimethylbutanoyl)-4-hydroxypyrrolidine-2-carboxamido)methyl)-5-(4-methylthiazol-5-yl)phenoxy)ethyl)-N-methylglycyl)piperazin-1-yl)prop-1-yn-1-yl)phenoxy)propyl)thiazole-4-carboxylic acid], in the test on COR-L105, the half-inhibitory concentration (IC50) was 2430 nM and the Emax came out at 105%. In the test on NCI-H1650, half-maximal inhibition (IC50) required 119 nM and the Emax came to 77.9%.

For the molecule `Cc1ncsc1-c1ccc(CNC(=O)[C@@H]2C[C@@H](O)CN2C(=O)[C@@H](NC(=O)C2(F)CC2)C(C)(C)C)c(OCCCCCCCCCCCCN2CCN(CC#Cc3ccc(OCCCc4sc(N5CCCc6c5nnc(Nc5nc7ccccc7s5)c6C)nc4C(=O)O)c(F)c3)CC2)c1` [Example 55, 2-(3-(benzo[d]thiazol-2-ylamino)-4-methyl-6,7-dihydropyrido [2,3-c]pyridazin-8(5H)-yl)-5-(3-(2-fluoro-4-(3-(4-(12-(2-(((2S,4R)-1-((S)-2-(1-fluorocyclopropane-1-carboxamido)-3,3-dimethylbutanoyl)-4-hydroxypyrrolidine-2-carboxamido)methyl)-5-(4-methylthiazol-5-yl)phenoxy)dodecyl)piperazin-1-yl)prop-1-yn-1-yl)phenoxy)propyl)thiazole-4-carboxylic acid], the values for the IC50 in the test on COR-L105 and in the test on NCI-H1650 were 1160 nM and 302 nM, respectively. The Emax with COR-L105 is 81%; with NCI-H1650, 78.8%.

On to `Cc1ncsc1-c1ccc(CNC(=O)[C@@H]2C[C@@H](O)CN2C(=O)[C@@H](NC(=O)C2(F)CC2)C(C)(C)C)c(OCCCCCCCCN2CCN(CC#Cc3ccc(OCCCc4sc(N5CCCc6c5nnc(Nc5nc7ccccc7s5)c6C)nc4C(=O)O)c(F)c3)CC2)c1` [Example 56, 2-(3-(benzo[d]thiazol-2-ylamino)-4-methyl-6,7-dihydropyrido [2,3-c]pyridazin-8(5H)-yl)-5-(3-(2-fluoro-4-(3-(4-(8-(2-(((2S,4R)-1-((S)-2-(1-fluorocyclopropane-1-carboxamido)-3,3-dimethylbutanoyl)-4-hydroxypyrrolidine-2-carboxamido)methyl)-5-(4-methylthiazol-5-yl)phenoxy)octyl)piperazin-1-yl)prop-1-yn-1-yl)phenoxy)propyl)thiazole-4-carboxylic acid], for which, in the test on COR-L105, the IC50 was found to be 473 nM and the Emax was determined as 82%. Further, in the test on NCI-H1650, the concentration for half-maximal inhibition (IC50) amounted to 110 nM and the Emax was found to be 84.2%.

The term IC50 denotes the concentration that inhibits the measured activity by half. As a reminder, the GI50 is the concentration that inhibits growth by half.

Values taken from patent publication US20240376094A2, “SELECTIVE BCL-XL PROTAC COMPOUNDS AND METHODS OF USE” (Les Laboratoires Servier, priority 2021, published 2024).
